In patent US6841519B1, “Isoxazoline derivatives and herbicides containing the same as the active ingredient” (Kumiai Chemical Industry Co., Ltd., priority 1999, dated 2005):

Tests used:
Format in all cases: in vivo
[1] = tested on: Chenopodium album L. (Ch); assay: Test for herbicidal effect to broadleaf weeds by upland field soil treatment (Test Example 6), Ch; conditions: 25 g/10 a active ingredient, 30th day
Experimental: (§1) Test for herbicidal effect to broadleaf weeds by upland field soil treatment
(§2) An upland field soil was filled in a plastic pot of 80 cm^2. Seeds of Polygonum lapathifolium L. subsp. nodosum (Pers.) Kitam. (Po) and Chenopodium album L. (Ch) were sowed, followed by covering with the same soil. Wettable powders produced in accordance with the Formulation 1 were diluted with water and sprayed uniformly on the soil surface using a small sprayer, […] Then, breeding was made in a greenhouse. At the 30th day from the treatment, the herbicidal effect of each wettable powder was examined in accordance with the standard shown in Table 40.

[2] = tested on: Echinochloa oryzicola Vasing. (Eo); assay: Test for herbicidal effect by paddy field soil treatment (Test Example 1); conditions: application amount (active ingredient) 100 g/10 a, examined at the 21st day from the treatment, index per Table 40
Summary of the method: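 Eo seeds sown in puddled paddy soil under 3 cm water; next day a water-diluted wettable powder was dropped onto the water surface at 100 g active ingredient per 10 ares. Herbicidal effect scored on a standard scale 21 days after treatment, greenhouse-grown.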

[3] = tested on: Echinochloa crus-galli (L.) Beauv. var. crusgalli (Ec); assay: Test for herbicidal effect by upland foliage treatment (Test Example 3); conditions: 100 g/10 a active ingredient, examined at 14th day
Summary of the method: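 Potted upland-soil Ec seedlings grown 2 weeks in greenhouse, then foliage-sprayed with water-diluted wettable powder at 100 L per 10 ares, giving 100 g active ingredient per 10 ares. Herbicidal effect scored on a graded standard 14 days after treatment.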

[4] = tested on: Setaria viridis (L.) Beauv. (Se); assay: Test for herbicidal effect by upland field soil treatment (Test Example 2), Se
Summary of the method: (§3)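 Echinochloa crus-galli and Setaria viridis were sown in upland field soil and covered, then the soil surface was sprayed with water-diluted wettable powder at 100 g active ingredient per 10 ares (100 liters per 10 ares). Plants were grown in a greenhouse and scored on a standard scale on day 21.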

[5] = tested on: Echinochloa crus-galli (L.) Beauv. var. crusgall (Ec); assay: Test for herbicidal effect by upland field soil treatment (Test Example 2), Ec
Summary of the method: as §3

[6] = tested on: Polygonum lapathifolium L. subsp. nodosum (Pers.) Kitam. (Po); assay: Test for herbicidal effect to broadleaf weeds by upland field soil treatment (Test Example 6), Po; conditions: 25 g/10 a active ingredient, 30th day
Experimental: as §1, §2

[7] = tested on: rice (Or); assay: Test for crop selectivity by paddy field soil treatment (Test Example 4), phytotoxicity to rice; conditions: transplanted two-leaf stage rice, 100 g/10 a active ingredient, 21st day
Summary of the method: (§4)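 Puddled paddy soil sown with Eo seeds, two-leaf rice transplanted at 2 cm depth, flooded 3 cm. Next day, wettable powder diluted in water was dropped on the water surface at 100 g a.i. per 10 ares. Herbicidal effect and rice phytotoxicity scored visually 21 days after treatment, greenhouse.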

[8] = tested on: Echinochloa oryzicola Vasing. (Eo); assay: Test for crop selectivity by paddy field soil treatment (Test Example 4), herbicidal effect on Eo; conditions: 100 g/10 a active ingredient, 21st day
Summary of the method: as §4

[9] = application amount (active ingredient) 100 g/10 a, examined at the 21st day from the treatment, index per Table 40
[10] = 100 g/10 a active ingredient, examined at 21st day

CC1(C)CC(S(=O)(=O)Cc2ccccc2Cl)=NO1 [Compound 1-2]
Herbicidal effect to Ch [1]: 4 (A herbicidal effect or phytotoxicity of 70% to less than 90%)
Herbicidal effect to Eo [2]: 5 (A herbicidal effect or phytotoxicity of 90% or more)
Herbicidal effect to Ec [3]: 4 (A herbicidal effect or phytotoxicity of 70% to less than 90%)
Herbicidal effect to Se [4, 9]: 5 (A herbicidal effect or phytotoxicity of 90% or more)
Herbicidal effect to Ec [5, 9]: 5 (A herbicidal effect or phytotoxicity of 90% or more)

CCCOc1ccccc1CS(=O)(=O)C1=NOC(C)(C)C1 [Compound 1-46]
Herbicidal effect to Ch [1]: 4 (A herbicidal effect or phytotoxicity of 70% to less than 90%)
Herbicidal effect to Eo [2]: 5 (A herbicidal effect or phytotoxicity of 90% or more)
Herbicidal effect to Ec [3]: 4 (A herbicidal effect or phytotoxicity of 70% to less than 90%)
Herbicidal effect to Po [6]: 5 (A herbicidal effect or phytotoxicity of 90% or more)
Herbicidal effect to Se [4, 9]: 5 (A herbicidal effect or phytotoxicity of 90% or more)
Herbicidal effect to Ec [5, 9]: 5 (A herbicidal effect or phytotoxicity of 90% or more)

CC1(C)CC(S(=O)(=O)Cc2cc(F)ccc2F)=NO1 [Compound 1-498]
Herbicidal effect to Ch [1]: 5 (A herbicidal effect or phytotoxicity of 90% or more)
Herbicidal effect to Eo [2]: 5 (A herbicidal effect or phytotoxicity of 90% or more)
Herbicidal effect to Ec [3]: 5 (A herbicidal effect or phytotoxicity of 90% or more)
Herbicidal effect to Po [6]: 5 (A herbicidal effect or phytotoxicity of 90% or more)
Herbicidal effect to Se [4, 10]: 5 (A herbicidal effect or phytotoxicity of 90% or more)
Herbicidal effect to Ec [5, 10]: 5 (A herbicidal effect or phytotoxicity of 90% or more)

CC1(C)CC(S(=O)(=O)Cc2c(F)cccc2[N+](=O)[O-])=NO1 [Compound 1-499]
Herbicidal effect to Ch [1]: 4 (A herbicidal effect or phytotoxicity of 70% to less than 90%)
Herbicidal effect to Eo [2]: 5 (A herbicidal effect or phytotoxicity of 90% or more)
Herbicidal effect to Ec [3]: 5 (A herbicidal effect or phytotoxicity of 90% or more)
Herbicidal effect to Po [6]: 5 (A herbicidal effect or phytotoxicity of 90% or more)
Herbicidal effect to Se [4, 10]: 5 (A herbicidal effect or phytotoxicity of 90% or more)
Herbicidal effect to Ec [5, 10]: 5 (A herbicidal effect or phytotoxicity of 90% or more)

CC1(C)CC(S(=O)(=O)Cc2c(F)cc(F)cc2F)=NO1 [Compound 1-500]
Herbicidal effect to Ch [1]: 4 (A herbicidal effect or phytotoxicity of 70% to less than 90%)
Herbicidal effect to Eo [2]: 5 (A herbicidal effect or phytotoxicity of 90% or more)
Herbicidal effect to Ec [3]: 5 (A herbicidal effect or phytotoxicity of 90% or more)
Herbicidal effect to Po [6]: 5 (A herbicidal effect or phytotoxicity of 90% or more)
Herbicidal effect to Se [4, 10]: 5 (A herbicidal effect or phytotoxicity of 90% or more)
Herbicidal effect to Ec [5, 10]: 5 (A herbicidal effect or phytotoxicity of 90% or more)

CC1(C)CC(S(=O)(=O)Cc2c(F)ccc(F)c2F)=NO1 [Compound 1-501]
Herbicidal effect to Ch [1]: 5 (A herbicidal effect or phytotoxicity of 90% or more)
Herbicidal effect to Eo [2]: 5 (A herbicidal effect or phytotoxicity of 90% or more)
Herbicidal effect to Ec [3]: 5 (A herbicidal effect or phytotoxicity of 90% or more)
Herbicidal effect to Po [6]: 5 (A herbicidal effect or phytotoxicity of 90% or more)
Herbicidal effect to Se [4, 10]: 5 (A herbicidal effect or phytotoxicity of 90% or more)
Herbicidal effect to Ec [5, 10]: 5 (A herbicidal effect or phytotoxicity of 90% or more)

O=S(=O)(Cc1c(F)cccc1F)C1=NOC(C2CC2)(C2CC2)C1 [Compound 1-520]
Herbicidal effect to Eo [2]: 5 (A herbicidal effect or phytotoxicity of 90% or more)
Phytotoxicity to Or [7]: 1 (A herbicidal effect or phytotoxicity of 10% to less than 30%)
Herbicidal effect to Ec [3]: 4 (A herbicidal effect or phytotoxicity of 70% to less than 90%)
Herbicidal effect to Se [4, 10]: 5 (A herbicidal effect or phytotoxicity of 90% or more)
Herbicidal effect to Ec [5, 10]: 5 (A herbicidal effect or phytotoxicity of 90% or more)
Herbicidal effect to Eo [8]: 5 (A herbicidal effect or phytotoxicity of 90% or more)

Cc1cc(C)cc(CS(=O)(=O)C2=NOC(C)(C)C2)c1 [Compound 1-523]
Herbicidal effect to Ch [1]: 5 (A herbicidal effect or phytotoxicity of 90% or more)
Herbicidal effect to Eo [2]: 5 (A herbicidal effect or phytotoxicity of 90% or more)
Herbicidal effect to Ec [3]: 5 (A herbicidal effect or phytotoxicity of 90% or more)
Herbicidal effect to Po [6]: 5 (A herbicidal effect or phytotoxicity of 90% or more)
Herbicidal effect to Se [4, 10]: 5 (A herbicidal effect or phytotoxicity of 90% or more)
Herbicidal effect to Ec [5, 10]: 5 (A herbicidal effect or phytotoxicity of 90% or more)

CCOc1cccc(F)c1CS(=O)(=O)C1=NOC(C)(C)C1 [Compound 1-526]
Herbicidal effect to Ch [1]: 5 (A herbicidal effect or phytotoxicity of 90% or more)
Herbicidal effect to Eo [2]: 5 (A herbicidal effect or phytotoxicity of 90% or more)
Herbicidal effect to Ec [3]: 5 (A herbicidal effect or phytotoxicity of 90% or more)
Herbicidal effect to Po [6]: 5 (A herbicidal effect or phytotoxicity of 90% or more)
Herbicidal effect to Se [4, 10]: 5 (A herbicidal effect or phytotoxicity of 90% or more)
Herbicidal effect to Ec [5, 10]: 5 (A herbicidal effect or phytotoxicity of 90% or more)

CC1CC(S(=O)(=O)Cc2c(F)cccc2F)=NO1 (centres unmarked) [Compound 1-532]
Herbicidal effect to Ch [1]: 5 (A herbicidal effect or phytotoxicity of 90% or more)
Herbicidal effect to Eo [2]: 5 (A herbicidal effect or phytotoxicity of 90% or more)
Herbicidal effect to Ec [3]: 4 (A herbicidal effect or phytotoxicity of 70% to less than 90%)
Herbicidal effect to Po [6]: 5 (A herbicidal effect or phytotoxicity of 90% or more)
Herbicidal effect to Se [4, 10]: 4 (A herbicidal effect or phytotoxicity of 70% to less than 90%)
Herbicidal effect to Ec [5, 10]: 5 (A herbicidal effect or phytotoxicity of 90% or more)

COc1cccc(F)c1CS(=O)(=O)C1=NOC(C)(C)C1 [Compound 1-534]
Herbicidal effect to Ch [1]: 5 (A herbicidal effect or phytotoxicity of 90% or more)
Herbicidal effect to Eo [2]: 5 (A herbicidal effect or phytotoxicity of 90% or more)
Herbicidal effect to Ec [3]: 5 (A herbicidal effect or phytotoxicity of 90% or more)
Herbicidal effect to Po [6]: 5 (A herbicidal effect or phytotoxicity of 90% or more)
Herbicidal effect to Se [4, 10]: 5 (A herbicidal effect or phytotoxicity of 90% or more)
Herbicidal effect to Ec [5, 10]: 5 (A herbicidal effect or phytotoxicity of 90% or more)

COC(=O)c1cccc(F)c1CS(=O)(=O)C1=NOC(C)(C)C1 [Compound 1-555]
Herbicidal effect to Ch [1]: 4 (A herbicidal effect or phytotoxicity of 70% to less than 90%)
Herbicidal effect to Eo [2]: 5 (A herbicidal effect or phytotoxicity of 90% or more)
Herbicidal effect to Ec [3]: 4 (A herbicidal effect or phytotoxicity of 70% to less than 90%)
Herbicidal effect to Po [6]: 5 (A herbicidal effect or phytotoxicity of 90% or more)
Herbicidal effect to Se [4, 10]: 5 (A herbicidal effect or phytotoxicity of 90% or more)
Herbicidal effect to Ec [5, 10]: 5 (A herbicidal effect or phytotoxicity of 90% or more)

CC12CCCCCC1C(S(=O)(=O)Cc1c(F)cccc1F)=NO2 (centres unmarked) [Compound 1-556]
Herbicidal effect to Eo [2]: 5 (A herbicidal effect or phytotoxicity of 90% or more)
Phytotoxicity to Or [7]: 0 (A herbicidal effect or phytotoxicity of 0% to less than 10%)
Herbicidal effect to Ec [3]: 4 (A herbicidal effect or phytotoxicity of 70% to less than 90%)
Herbicidal effect to Se [4, 10]: 4 (A herbicidal effect or phytotoxicity of 70% to less than 90%)
Herbicidal effect to Ec [5, 10]: 5 (A herbicidal effect or phytotoxicity of 90% or more)
Herbicidal effect to Eo [8]: 5 (A herbicidal effect or phytotoxicity of 90% or more)

CCCCOc1cccc(Cl)c1CS(=O)(=O)C1=NOC(C)(C)C1 [Compound 1-574]
Herbicidal effect to Eo [2]: 5 (A herbicidal effect or phytotoxicity of 90% or more)
Phytotoxicity to Or [7]: 1 (A herbicidal effect or phytotoxicity of 10% to less than 30%)
Herbicidal effect to Ec [3]: 4 (A herbicidal effect or phytotoxicity of 70% to less than 90%)
Herbicidal effect to Se [4, 10]: 5 (A herbicidal effect or phytotoxicity of 90% or more)
Herbicidal effect to Ec [5, 10]: 5 (A herbicidal effect or phytotoxicity of 90% or more)
Herbicidal effect to Eo [8]: 5 (A herbicidal effect or phytotoxicity of 90% or more)

C=CCOC(=O)c1ccccc1CS(=O)(=O)C1=NOC(C)(C)C1 [Compound 1-599]
Herbicidal effect to Eo [2]: 5 (A herbicidal effect or phytotoxicity of 90% or more)
Phytotoxicity to Or [7]: 1 (A herbicidal effect or phytotoxicity of 10% to less than 30%)
Herbicidal effect to Ec [3]: 4 (A herbicidal effect or phytotoxicity of 70% to less than 90%)
Herbicidal effect to Se [4, 10]: 5 (A herbicidal effect or phytotoxicity of 90% or more)
Herbicidal effect to Ec [5, 10]: 5 (A herbicidal effect or phytotoxicity of 90% or more)
Herbicidal effect to Eo [8]: 5 (A herbicidal effect or phytotoxicity of 90% or more)
